Measured values from ChEMBL document CHEMBL5608141, “Identification of compartment-specific drug sensitivities in CRC organoid-stroma co-cultures” (2024).

What was measured:
Assay type in all cases: functional, Homo sapiens
Design in all cases: dose or concentration left out as unconfirmed
Colon cancer organoid [1] = test: Identification of compartment-specific drug sensitivities in O06 CRC organoid-stroma F06 CAF co-cultures. Organoid is transduced with Lucferase2-P2A-EGFP lentivirus, fibroblast with Renilla-dsRed lentivirus. Dual-Glo Luciferase assay is used to report viability data.
Colon cancer organoid [2] = test: Identification of compartment-specific drug sensitivities in O14 CRC organoid-stroma F14 CAF co-cultures. Organoid is transduced with Lucferase2-P2A-EGFP lentivirus, fibroblast with Renilla-dsRed lentivirus. Dual-Glo Luciferase assay is used to report viability data.
Colon cancer organoid [3] = test: Identification of compartment-specific drug sensitivities in O20 CRC organoid-stroma F20 CAF co-cultures. Organoid is transduced with Lucferase2-P2A-EGFP lentivirus, fibroblast with Renilla-dsRed lentivirus. Dual-Glo Luciferase assay is used to report viability data.
[4] = Transduced with Lucferase2-P2A-EGFP lentivirus
[5] = Transduced with Renilla-dsRed lentivirus

SMILES	Cell Viability (Colon cancer organoid [1]; [4]) [%]	Cell Viability (Colon cancer organoid [1]; [5]) [%]	Cell Viability (Colon cancer organoid [2]; [4]) [%]	Cell Viability (Colon cancer organoid [2]; [5]) [%]	Cell Viability (Colon cancer organoid [3]; [4]) [%]	Cell Viability (Colon cancer organoid [3]; [5]) [%]
Cc1c(NC(=O)c2ccc(C(C)(C)C)cc2)cccc1-c1cn(C)c(=O)c(Nc2ccc(C(=O)N3CCOCC3)cc2)n1	105.279	113.435	92.1091	94.7887	110.349	88.3582
Cc1sc2c(c1C)C(c1ccc(Cl)cc1)=N[C@@H](CC(=O)OC(C)(C)C)c1nnc(C)n1-2	24.0633	301.325	31.858	201.171	11.1793	145.881
COc1cc2c(cc1-c1c(C)noc1C)ncc1[nH]c(=O)n([C@H](C)c3ccccn3)c12	43.5488	325.273	55.7493	184.963	26.1265	172.215
CCCc1cc(C)[nH]c(=O)c1CNC(=O)c1cc(-c2ccnc(N3CCN(C)CC3)c2)cc2c1cnn2C(C)C	75.6598	125.188	87.4027	100.827	56.2508	146.305
CCCCNc1ncc(-c2ccc(CN3CCOCC3)cn2)c(N[C@H]2CC[C@H](O)CC2)n1	22.8495	123.664	12.9881	77.7799	8.867	223.767
CC(C)NC(=O)N1CC[C@H](NC2=Nc3cc(F)ccc3N(CC(F)F)c3ccc(Cl)cc32)C1	50.3719	97.5535	92.2307	99.3787	55.1322	142.836
COc1cc(-c2cn([C@H]3CCc4c(F)cccc4N(CC(F)(F)F)C3=O)nn2)ccc1-n1cnc(C)c1	62.2519	94.2085	128.088	98.8677	119.382	109.286
CN1CCN(c2ccc(-c3cccc(CN4CCOCC4)c3)cc2NC(=O)c2c[nH]c(=O)cc2C(F)(F)F)CC1	91.1397	122.014	95.9628	85.2187	82.8822	116.555
CNCCN1CCC(OCc2ccccc2)CC1	118.085	144.179	40.9856	114.707	15.2261	211.667
CCc1cc2cc(NS(=O)(=O)c3ccc(C#N)cc3)ccc2n(CC)c1=O	88.2132	102.933	120.494	98.1699	196.577	99.0217
Cn1c(=O)[nH]c2cc(N3C(=O)c4cccc5c(CCCO)ccc(c45)C3=O)ccc21	115.119	110.623	148.781	92.4291	127.541	89.8045
CN(C)[C@H]1CN(C2CCc3cccc(F)c32)C[C@@H]1c1ccc(N2CCN(S(C)(=O)=O)CC2)cc1 (some centres not stated)	82.1891	127.07	77.8807	109.764	31.9931	145.189
CC1(C)C(N)=Nc2cc(OCCCN3Cc4ccc(OCCc5cn(CC(=O)N6CCC(CCN7CCCC7)CC6)nn5)cc4C3)c(OCC3CC3)cc21	85.8179	109.54	112.775	105.217	95.5615	161.052
CC1(C)C(N)=Nc2cc(OCCCCN3Cc4ccc(OCc5cn(CC(=O)N6CCC(CCN7CCCC7)CC6)nn5)cc4C3)c(OCC3CC3)cc21	65.2251	114.368	112.762	94.6071	70.7317	125.652
CC(C)(O)[C@H](F)CN1Cc2cc(NC(=O)c3cnn4cccnc34)c(N3CCOCC3)cc2C1=O	120.796	89.8431	105.194	83.4987	123.644	88.3121
CN1CCN(Cc2cc(NC(=O)c3ccc4c(c3)CN(c3ccccc3)CC4)cc(C(F)(F)F)c2)CC1	105.854	147.303	122.837	90.754	90.0307	84.0381

SMILES	Cell Viability (Colon cancer organoid [1]; [4]) [%]	Cell Viability (Colon cancer organoid [1]; [5]) [%]	Cell Viability (Colon cancer organoid [2]; [4]) [%]	Cell Viability (Colon cancer organoid [2]; [5]) [%]	Cell Viability (Colon cancer organoid [3]; [4]) [%]	Cell Viability (Colon cancer organoid [3]; [5]) [%]
Cc1cn(-c2cc(NC(=O)c3ccc4c(c3)CN(c3cncnc3)C[C@@H]4C)cc(C(F)(F)F)c2)cn1	82.9908	122.253	141.09	97.6954	88.3808	107.854
Cc1cccc(-c2cnc3occ(-c4ccc(C(=O)O)c(C5CCCC5)c4)c3c2)c1	94.5335	126.561	146.067	87.0815	88.6258	133.429
O=C(NCCCN1CCOC1=O)c1cnc(NCc2cc(Br)ccc2Br)nc1NC1CCCC1	72.4903	99.9468	120.927	72.8786	103.947	94.0994
COc1ccccc1-c1cc(N2CCN(C(=O)OC(C)(C)C)CC2)c(N)nn1	99.4085	102.712	120.209	94.5585	123.55	160.936
O=C(O)c1ccc(-c2coc3ncc(-c4ccccc4)cc23)cc1Cl	84.9927	102.883	182.141	68.2046	189.357	126.188
CN(C(=O)c1cnn2cccnc12)c1cc2c(cc1N1CCOCC1)C(=O)N(C[C@@H](F)C(C)(C)O)C2	93.6773	65.3185	98.5166	101.353	85.5909	89.8275
c1ccc(C2CCN(c3cnc4c(N5CCOCC5)nccn34)CC2)cc1	25.484	144.176	130.379	77.7891	90.2822	108.246
COc1cc(Nc2nc(C)cc(-c3cnn4nc(OC)ccc34)n2)cc(C(F)(F)F)c1	17.5131	98.9895	120.94	74.993	136.021	99.6244
CN(C)C(=O)N1CC[C@H](NC2=Nc3cc(F)ccc3N(CC(F)F)c3ccc(Cl)cc32)C1	22.5333	79.8107	119.43	91.6025	71.357	98.2431
CCn1c(-c2nc3cc(C(=O)N4CCCC(N)C4)ccc3n2C)cc2ccccc21.Cl (configuration not stated)	115.054	117.733	132.628	112.241	133.825	136.72
CCOc1ccc(S(=O)(=O)Nc2ccc(Cl)cc2C#Cc2cnc(C(=O)[O-])cc2OC)c2ncccc12.[K+]	117.764	113.31	103.028	89.48	110.493	117.362
Cc1cc(CN)cc(C)c1-c1ncn(C)c1-c1ccnc2cc(F)ccc12.Cl	105.057	123.721	138.136	105.376	144.981	87.6481
CC1=CC(C)=[N+]2C1=C(CCCCc1cn(CC(=O)N3CCc4nc(NC(=O)[C@H]5CCN(C#N)C5)sc4C3)nn1)c1c(C)cc(C)n1[B-]2(F)F	125.029	111.523	84.8013	97.3387	77.3724	101.216
COc1cc(OC)cc(-c2noc(N3CCN(C)C4(CCN(c5ccccc5)CC4)C3)n2)c1	67.7845	115.277	135.567	106.85	90.427	110.491
COc1ccccc1C(=O)Nc1cc2c(cc1N1CCNCC1C)n(C)c(=O)n2C (configuration not stated)	112.155	138.916	118.564	101.199	131.273	107.173
COc1cccc2c1C(=O)c1c(O)c3c(c(O)c1C2=O)CC(O)(C(=O)CO)CC3OC1CC(N)C(O)C(C)O1.Cl (configuration not stated)	14.9439	235.56	3.454	89.9373	5.3877	237.178
